Assay results reported in patent US9422285B2, “Substituted pyrazolo[1,5-A]-pyridine-3-carboxamides and use thereof” (Bayer Pharma Aktiengesellschaft, priority 2014, dated 2016).

The molecules below were run against T1, recombinant guanylate cyclase reporter cell line (Rattus norvegicus, UniProt P19686+P20595) (assay: Effect on a recombinant guanylate cyclase reporter cell line (B-2)). Conditions: in some cases mean values for individual determinations.
T1 construct: expressed in transfected cells
T1 sequence (P19686 1-690): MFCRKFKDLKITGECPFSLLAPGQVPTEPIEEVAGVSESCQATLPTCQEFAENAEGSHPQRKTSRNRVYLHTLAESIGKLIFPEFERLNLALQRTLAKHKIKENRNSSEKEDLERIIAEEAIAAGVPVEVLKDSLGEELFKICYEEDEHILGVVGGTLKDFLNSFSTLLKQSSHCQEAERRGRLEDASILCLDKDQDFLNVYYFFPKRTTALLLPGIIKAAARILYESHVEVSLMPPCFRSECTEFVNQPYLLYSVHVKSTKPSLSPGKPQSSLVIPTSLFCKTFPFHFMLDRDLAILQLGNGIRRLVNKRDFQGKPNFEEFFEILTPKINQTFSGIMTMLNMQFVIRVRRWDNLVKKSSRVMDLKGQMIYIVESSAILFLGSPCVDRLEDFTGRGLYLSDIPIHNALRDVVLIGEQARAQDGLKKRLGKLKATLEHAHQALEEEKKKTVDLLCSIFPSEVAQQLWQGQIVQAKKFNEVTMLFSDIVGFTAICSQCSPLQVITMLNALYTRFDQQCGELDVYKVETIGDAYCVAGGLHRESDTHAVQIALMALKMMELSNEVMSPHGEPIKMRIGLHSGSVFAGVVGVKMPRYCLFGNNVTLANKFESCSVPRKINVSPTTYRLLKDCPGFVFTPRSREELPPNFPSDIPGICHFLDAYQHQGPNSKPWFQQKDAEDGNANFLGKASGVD
T1 sequence (P20595 1-619): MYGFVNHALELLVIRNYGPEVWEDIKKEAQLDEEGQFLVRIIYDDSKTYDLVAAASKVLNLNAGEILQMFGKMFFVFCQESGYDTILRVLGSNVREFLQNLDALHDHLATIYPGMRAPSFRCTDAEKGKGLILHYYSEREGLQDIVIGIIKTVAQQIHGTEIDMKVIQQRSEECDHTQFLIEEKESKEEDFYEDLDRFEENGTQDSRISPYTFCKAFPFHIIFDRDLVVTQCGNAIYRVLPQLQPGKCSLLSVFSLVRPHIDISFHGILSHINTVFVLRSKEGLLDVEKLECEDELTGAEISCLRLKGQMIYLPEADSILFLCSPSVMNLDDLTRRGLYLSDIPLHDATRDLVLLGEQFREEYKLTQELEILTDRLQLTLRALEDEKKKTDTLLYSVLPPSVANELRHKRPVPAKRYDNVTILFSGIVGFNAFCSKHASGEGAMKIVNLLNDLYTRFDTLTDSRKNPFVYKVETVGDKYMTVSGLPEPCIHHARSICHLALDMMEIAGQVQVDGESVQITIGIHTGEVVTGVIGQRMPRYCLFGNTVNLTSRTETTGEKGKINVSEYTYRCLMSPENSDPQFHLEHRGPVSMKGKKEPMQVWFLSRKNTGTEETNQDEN
Type: cell-based
Method: B-2. Effect on a Recombinant Guanylate Cyclase Reporter Cell Line
The cellular effect of the inventive compounds is determined using a recombinant guanylate cyclase reporter cell line, as described in F. Wunder et al., Anal. Biochem. 339, 104-112 (2005).
Representative MEC values (MEC=minimum effective concentration) for the inventive compounds are shown in the table below (in some cases as mean values for individual determinations): […]

Point of comparison: `CCCC[C@H](CO)NC(=O)c1c(C)nn2c(OCc3c(F)cccc3F)cc(C)cc12` [Example 144, 7-[(2,6-Difluorobenzyl)oxy]-N-[(2R)-1-hydroxyhexan-2-yl]-2,5-dimethylpyrazolo[1,5-a]pyridine-3-carboxamide], “MEC (minimum effective concentration)” value 0.1 µM. Against it:
- COC(=O)C12CCC(NC(=O)c3c(C)nn4c(OCc5c(F)cccc5F)cc(C)cc34)(CC1)CC2 [Example 152, methyl 4-[({7-[(2,6-difluorobenzyl)oxy]-2,5-dimethylpyrazolo[1,5-a]pyridin-3-yl}carbonyl)amino]bicyclo[2.2.2]octane-1-carboxylate] — 3-fold higher, 0.3 µM
- Cc1cc(OCc2c(F)cccc2F)n2nc(C)c(C(=O)NCC3(N)CCCCC3)c2c1 [Example 124, N-[(1-Aminocyclohexyl)methyl]-7-[(2,6-difluorobenzyl)oxy]-2,5-dimethylpyrazolo[1,5-a]pyridine-3-carboxamide] — 3-fold higher, 0.3 µM
- Cc1cc(OCc2c(F)cccc2F)n2nc(C)c(C(=O)NC3CCC3(C)N)c2c1 (racemic) [Example 91, rac-N-(2-Amino-2-methylcyclobutyl)-7-[(2,6-difluorobenzyl)oxy]-2,5-dimethylpyrazolo[1,5-a]pyridine-3-carboxamide] — 30-fold higher, 3.0 µM
- Cc1cc(OCc2c(F)ccc(F)c2F)n2nc(C)c(C(=O)NC(CCC(F)(F)C(F)(F)F)C(C)(C)O)c2c1 (single isomer, unassigned; ent-2) [Example 22, ent-2,5-Dimethyl-N-(6,6,7,7,7-pentafluoro-2-hydroxy-2-methylheptan-3-yl)-7-[(2,3,6-trifluorobenzyl)oxy]pyrazolo[1,5-a]pyridine-3-carboxamide] — the same, 0.1 µM
- CCCC(C)(N)CNC(=O)c1c(C)nn2c(OCc3c(F)ccc(F)c3F)cc(C)cc12 (single isomer, unassigned) [Example 4, ent-N-(2-Amino-2-methylpentyl)-2,5-dimethyl-7-[(2,3,6-trifluorobenzyl)oxy]pyrazolo[1,5-a]pyridine-3-carboxamide] — 2-fold higher, 0.2 µM
- Cc1cc(OCc2c(F)cccc2F)n2nc(C)c(C(=O)NCCS(N)(=O)=O)c2c1 [Example 61, 7-[(2,6-Difluorobenzyl)oxy]-2,5-dimethyl-N-(2-sulphamoylethyl)pyrazolo[1,5-a]pyridine-3-carboxamide] — 100-fold higher, 10 µM
- Cc1cc(OCc2c(F)cccc2F)n2nc(C)c(C(=O)NC[C@@H]3CCCCN3)c2c1 [Example 129, 7-[(2,6-Difluorobenzyl)oxy]-2,5-dimethyl-N-[(2S)-piperidin-2-ylmethyl]pyrazolo[1,5-a]pyridine-3-carboxamide] — 30-fold higher, 3.0 µM
- Cc1cc(OCc2c(F)cccc2F)n2nc(C)c(C(=O)NC3COc4ccccc43)c2c1 (racemic) [Example 108, rac-7-[(2,6-Difluorobenzyl)oxy]-N-(2,3-dihydro-1-benzofur-3-yl)-2,5-dimethylpyrazolo[1,5-a]pyridine-3-carboxamide] — 3-fold higher, 0.3 µM
- Cc1cc(OCc2c(F)ccc(F)c2F)n2nc(C)c(C(=O)NC(C#N)c3ccc(Cl)cc3)c2c1 (stereo not drawn) [Example 34, N-[(4-Chlorophenyl)(cyano)methyl]-2,5-dimethyl-7-[(2,3,6-trifluorobenzyl)oxy]pyrazolo[1,5-a]pyridine-3-carboxamide] — 10-fold higher, 1.0 µM
- Cc1cc(OCc2c(F)cccc2F)n2nc(C)c(C(=O)NC3CCCc4ccccc43)c2c1 (racemic) [Example 138, rac-7-[(2,6-Difluorobenzyl)oxy]-2,5-dimethyl-N-(1,2,3,4-tetrahydronaphthalen-1-yl)pyrazolo[1,5-a]pyridine-3-carboxamide] — the same, 0.1 µM
- Cc1cc(OCc2c(F)cccc2F)n2nc(C)c(C(=O)NCC(N)c3ccc(C)o3)c2c1 (racemic) [Example 104, rac-N-[2-Amino-2-(5-methyl-2-furyl)ethyl]-7-[(2,6-difluorobenzyl)oxy]-2,5-dimethylpyrazolo[1,5-a]pyridine-3-carboxamide] — 30-fold higher, 3.0 µM
